The results in this text go back to patent publication US12692396B2, “Fluorescent labeling agent and fluorescent dye” (artience Co., Ltd., priority 2020, dated 2026).

In the series the test system is Human epithelium cancer cells A431. The experiment in a line: Evaluation of cell toxicity of fluorescent labeling agent (cell counting kit-8, absorbance at 450 nm). The format is cell-based. The settings on record: labeling agent left one hour, absorbance relative to DMSO medium solution regarded as one. As for the experimental part:
<Evaluation of Cell Toxicity of Fluorescent Labeling Agent>
Human epithelium cancer cells A431 were seeded in a 96-well plate (1×10^4 cells/well). Next, the A431 were cultured for 24 hours using an RPMI 1640 medium to which 10% fetal bovine serum (FBS) and 1% penicillin-streptomycin had been added in an incubator (37° C., 5% CO2-containing Air, humidified environment). As the RPMI 1640 medium, an RPMI-164-Medium manufactured by Sigma-Aldrich Inc. was used.
After cultivation, the medium was removed, the fluorescent labeling agents prepared in Examples 83 to 123 and Comparative Examples 25 to 37 and an RPMI 1640 medium containing 1% dimethyl sulfoxide (DMSO medium solution) were added thereto. These were left to stand in the incubator for one hour and then washed in the RPMI 1640 medium. 10 μL of a cell counting kit-8 (manufactured by Dojindo Laboratories.) was added to each well and left to stand in the incubator (37° C., 5% CO2-containing Air, humidified environment) for one hour. Next, the absorbance at 450 nm was measured using a plate reader (SPARK, manufactured by Tecan Trading AG).
The relative value of the absorbance of each fluorescent labeling agent when the absorbance of the well to which the DMSO medium solution had been added was regarded as one was calculated and evaluated based on the following standards. […] At the time of calculating the relative value of the absorbance of the fluorescent labeling agent, a value obtained by subtracting the absorbance before the addition of the cell counting kit-8 (manufactured by Dojindo Laboratories.) from the measured absorbance was used.
• P (Pass): 0.8 or more • F (Failure): Less than 0.8 <Evaluation of Fluorescence Intensity of Fluorescent Labeling Agent>

Each structure is given as a SMILES string.

For the molecule `C[Si](C)(CCCN)[O][Al]1[n]2c3c4cc(C5CCCCC5)c(C5CCCCC5)cc4c2N=C2N=C(N=c4c5cc(C6CCCCC6)c(C6CCCCC6)cc5c([n]41)=NC1=NC(=N3)c3cc(C4CCCCC4)c(C4CCCCC4)cc31)c1cc(C3CCCCC3)c(C3CCCCC3)cc12` [Fluorescent dye 3], the Cell toxicity entry is “P (P (Pass): 0.8 or more)”.

As to `C[Si](C)(CCCN)[O][Al]1[n]2c3c4cccc(Sc5ccccc5)c4c2N=C2N=C(N=c4c5cccc(Sc6ccccc6)c5c([n]41)=NC1=NC(=N3)c3c(Sc4ccccc4)cccc31)c1c(Sc3ccccc3)cccc12` [Fluorescent dye 4], the Cell toxicity entry is on record as “P (P (Pass): 0.8 or more)”.

Regarding `CCOc1cccc2c1C1=NC2=Nc2c3c(OCC)cccc3c3n2[Si](O)(O[Si](C)(C)CCCN)n2c(c4cccc(OCC)c4c2=NC2=NC(=N3)c3c(OCC)cccc32)=N1` (stereo not shown) [Fluorescent dye 5], the Cell toxicity result was “P (P (Pass): 0.8 or more)”.

With `CCOc1cccc2c1C1=NC2=Nc2c3c(OCC)cccc3c3[n]2[Al]([O]S(=O)(=O)c2ccc(CCN)cc2)[n]2c(c4cccc(OCC)c4c2=NC2=NC(=N3)c3c(OCC)cccc32)=N1` [Fluorescent dye 6], the Cell toxicity entry was “P (P (Pass): 0.8 or more)”.

Turning to `NCCc1ccc(S(=O)(=O)[O][Al]2[n]3c4c5cc(C(F)(F)F)ccc5c3N=C3N=C(N=c5c6cc(C(F)(F)F)ccc6c([n]52)=NC2=NC(=N4)c4ccc(C(F)(F)F)cc42)c2ccc(C(F)(F)F)cc23)cc1` [Fluorescent dye 7], the Cell toxicity result is given as “P (P (Pass): 0.8 or more)”.

Turning to `CCCCCCCCCCCCCCCCCCc1ccc2c(c1)C1=NC2=Nc2c3cc(CCCCCCCCCCCCCCCCCC)ccc3c3[n]2[Al]([O]S(=O)(=O)c2ccc(CCN)cc2)[n]2c(c4ccc(CCCCCCCCCCCCCCCCCC)cc4c2=NC2=NC(=N3)c3cc(CCCCCCCCCCCCCCCCCC)ccc32)=N1` [Fluorescent dye 8], the Cell toxicity result is reported as “P (P (Pass): 0.8 or more)”.

Regarding `CC(C)(C)c1ccc2c(c1)C1=NC2=Nc2c3cc(C(C)(C)C)ccc3c3[n]2[Al]([O]S(=O)(=O)c2ccc(CCN)cc2)[n]2c(c4ccc(C(C)(C)C)cc4c2=NC2=NC(=N3)c3cc(C(C)(C)C)ccc32)=N1` [Fluorescent dye 9], the Cell toxicity entry is given as “P (P (Pass): 0.8 or more)”.

Consider `CCOc1cccc2c1C1=NC2=Nc2c3c(OCC)cccc3c3[n]2[Al]([O]C(=O)CCCN)[n]2c(c4cccc(OCC)c4c2=NC2=NC(=N3)c3c(OCC)cccc32)=N1` [Fluorescent dye 10], for which the Cell toxicity result is on record as “P (P (Pass): 0.8 or more)”.

Consider `CCOc1cccc2c1C1=NC2=Nc2c3c(OCC)cccc3c3[n]2[Al]([O]C(=O)c2ccc(C(=O)O)cc2)[n]2c(c4cccc(OCC)c4c2=NC2=NC(=N3)c3c(OCC)cccc32)=N1` [Fluorescent dye 11], for which the Cell toxicity entry is “P (P (Pass): 0.8 or more)”.

On to `CC(C)C(Oc1cccc2c1C1=NC2=Nc2c3c(OC(C(C)C)C(C)C)cccc3c3[n]2[Al]([O]S(=O)(=O)CCCOCCC(=O)O)[n]2c(c4cccc(OC(C(C)C)C(C)C)c4c2=NC2=NC(=N3)c3c(OC(C(C)C)C(C)C)cccc32)=N1)C(C)C` [Fluorescent dye 12], for which the Cell toxicity entry is given as “P (P (Pass): 0.8 or more)”.
